Measurements published in the supplement of paper PMC10307832.

What was measured:
Experiment in all cases: relative viability (nuclei count vs DMSO), 5 days (fraction); higher = more cells survive
[1] = compound: CN(C)C[C@@H]1CCn2cc(c3ccccc32)C2=C(C(=O)NC2=O)c2cn(c3ccccc23)CCO1 [Ruboxistaurin]
Method in brief: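 Lung cancer cell lines received five library-drug doses (not always all listed) spaced by √10, pinned on vehicle-anchored 1536-well plates after an overnight stay at 37 °C. Five days later, with no medium change, nuclei were Hoechst-stained, imaged at 4× and counted with MetaXpress. Viability is treated-well nuclei relative to vehicle-well nuclei, as a median across plates. Passing plates had control CV below 25% and at least one doubling.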

[2] = compound: CN(C)C[C@@H]1CCn2cc(c3ccccc32)C2=C(C(=O)NC2=O)c2cn(c3ccccc23)CCO1 [Ruboxistaurin] + N=C(N)NC(=N)NCCc1ccccc1 [Phenformin] (partner 250 µM)
Method in brief: (§1)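 Relative viability equals treated-well nuclei counts divided by vehicle-well nuclei counts. Counts came from 4× images of lung cancer cell lines grown in 1536-well plates for 5 days after pin-tool dosing on the day after seeding. Dosing used one drug alone or a fixed anchor-drug dose plus five library-drug doses (not always all listed) in √10 steps, and values are medians of duplicate plates.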

[3] = compound: CN(C)C[C@@H]1CCn2cc(c3ccccc32)C2=C(C(=O)NC2=O)c2cn(c3ccccc23)CCO1 [Ruboxistaurin] + COc1cc2c(Oc3ccc(NC(=O)C4(C(=O)Nc5ccc(F)cc5)CC4)cc3F)ccnc2cc1OCCCN1CCOCC1 [Foretinib] (partner 0.25 µM)
Method in brief: as §1

[4] = compound: CN(C)C[C@@H]1CCn2cc(c3ccccc32)C2=C(C(=O)NC2=O)c2cn(c3ccccc23)CCO1 [Ruboxistaurin] + Cc1cc(Nc2cc(N3CCN(C)CC3)nc(Sc3ccc(NC(=O)C4CC4)cc3)n2)n[nH]1 [Tozasertib] (partner 0.1 µM)
Method in brief: as §1

[5] = compound: CN(C)C[C@@H]1CCn2cc(c3ccccc32)C2=C(C(=O)NC2=O)c2cn(c3ccccc23)CCO1 [Ruboxistaurin] + CCNC(=O)c1noc(-c2cc(C(C)C)c(O)cc2O)c1-c1ccc(CN2CCOCC2)cc1 [Luminespib] (partner 0.01 µM)
Method in brief: as §1

[6] = compound: CN(C)C[C@@H]1CCn2cc(c3ccccc32)C2=C(C(=O)NC2=O)c2cn(c3ccccc23)CCO1 [Ruboxistaurin] + COc1cccc2cc(-c3nc([C@H]4CC[C@H](C(=O)O)CC4)n4ncnc(N)c34)[nH]c12 [OSI-027] (partner 0.5 µM)
Method in brief: as §1

[7] = compound: CN(C)C[C@@H]1CCn2cc(c3ccccc32)C2=C(C(=O)NC2=O)c2cn(c3ccccc23)CCO1 [Ruboxistaurin] + Cc1nc(Nc2ncc(C(=O)Nc3c(C)cccc3Cl)s2)cc(N2CCN(CCO)CC2)n1 [Dasatinib] (partner 0.075 µM)
Method in brief: as §1

[8] = compound: CN(C)C[C@@H]1CCn2cc(c3ccccc32)C2=C(C(=O)NC2=O)c2cn(c3ccccc23)CCO1 [Ruboxistaurin] + O=C(c1cc(Cc2n[nH]c(=O)c3ccccc23)ccc1F)N1CCN(C(=O)C2CC2)CC1 [Olaparib] (partner 8 µM)
Method in brief: as §1

[9] = compound: CN(C)C[C@@H]1CCn2cc(c3ccccc32)C2=C(C(=O)NC2=O)c2cn(c3ccccc23)CCO1 [Ruboxistaurin] + Nc1nc2[nH]cc(CCc3ccc(C(=O)N[C@@H](CCC(=O)O)C(=O)O)cc3)c2c(=O)[nH]1 [Pemetrexed] (partner 0.2 µM)
Method in brief: as §1

[10] = compound: CN(C)C[C@@H]1CCn2cc(c3ccccc32)C2=C(C(=O)NC2=O)c2cn(c3ccccc23)CCO1 [Ruboxistaurin] + CC(=O)c1c(C)c2cnc(Nc3ccc(N4CCNCC4)cn3)nc2n(C2CCCC2)c1=O [Palbociclib] (partner 0.5 µM)
Method in brief: as §1

[11] = compound: CN(C)C[C@@H]1CCn2cc(c3ccccc32)C2=C(C(=O)NC2=O)c2cn(c3ccccc23)CCO1 [Ruboxistaurin] + CC(=O)Nc1cccc(-n2c(=O)n(C3CC3)c(=O)c3c(Nc4ccc(I)cc4F)n(C)c(=O)c(C)c32)c1 [Trametinib] (partner 0.02 µM)
Method in brief: as §1

[12] = compound: CN(C)C[C@@H]1CCn2cc(c3ccccc32)C2=C(C(=O)NC2=O)c2cn(c3ccccc23)CCO1 [Ruboxistaurin] + Nc1ncn([C@H]2C[C@H](O)[C@@H](CO)O2)c(=O)n1 [Decitabine] (partner 2 µM)
Method in brief: as §1

[13] = compound: CN(C)C[C@@H]1CCn2cc(c3ccccc32)C2=C(C(=O)NC2=O)c2cn(c3ccccc23)CCO1 [Ruboxistaurin] + NC(=O)Nc1cc(-c2cccc(F)c2)sc1C(=O)N[C@H]1CCCNC1 [AZD7762] (partner 0.2 µM)
Method in brief: as §1

[14] = compound: CN(C)C[C@@H]1CCn2cc(c3ccccc32)C2=C(C(=O)NC2=O)c2cn(c3ccccc23)CCO1 [Ruboxistaurin] + O=C(CCCCCCC(=O)Nc1ccccc1)NO [Vorinostat] (partner 1 µM)
Method in brief: as §1

NCI-H1623
relative viability ([1]; 0.08 µM): 1.03
relative viability ([1]; 0.8 µM): 0.922
relative viability ([1]; 2.53 µM): 1.01
relative viability ([1]; 8 µM): 0.977
relative viability ([2]; first compound 0.08 µM): 0.632
relative viability ([2]; first compound 0.8 µM): 0.58
relative viability ([2]; first compound 2.53 µM): 0.693
relative viability ([2]; first compound 8 µM): 0.563
relative viability ([3]; first compound 0.08 µM): 0.895
relative viability ([3]; first compound 0.8 µM): 0.747
relative viability ([3]; first compound 2.53 µM): 0.933
relative viability ([3]; first compound 8 µM): 0.837
relative viability ([4]; first compound 0.08 µM): 0.429
relative viability ([4]; first compound 0.8 µM): 0.405
relative viability ([4]; first compound 2.53 µM): 0.459
relative viability ([4]; first compound 8 µM): 0.436
relative viability ([5]; first compound 0.08 µM): 0.595
relative viability ([5]; first compound 0.8 µM): 0.391
relative viability ([5]; first compound 2.53 µM): 0.639
relative viability ([5]; first compound 8 µM): 0.401
relative viability ([6]; first compound 0.08 µM): 0.341
relative viability ([6]; first compound 0.8 µM): 0.416
relative viability ([6]; first compound 2.53 µM): 0.423
relative viability ([6]; first compound 8 µM): 0.374
relative viability ([7]; first compound 0.08 µM): 0.505
relative viability ([7]; first compound 0.8 µM): 0.5
relative viability ([7]; first compound 2.53 µM): 0.525
relative viability ([7]; first compound 8 µM): 0.531

NCI-H1648
relative viability ([1]; 0.08 µM): 0.894
relative viability ([1]; 0.8 µM): 0.966
relative viability ([1]; 2.53 µM): 1.11
relative viability ([1]; 8 µM): 1.15
relative viability ([8]; first compound 0.08 µM): 1.33
relative viability ([8]; first compound 0.8 µM): 0.64
relative viability ([8]; first compound 2.53 µM): 0.797
relative viability ([8]; first compound 8 µM): 1.22
relative viability ([9]; first compound 0.08 µM): 0.699
relative viability ([9]; first compound 0.8 µM): 0.717
relative viability ([9]; first compound 2.53 µM): 0.612
relative viability ([9]; first compound 8 µM): 0.894
relative viability ([4]; first compound 0.08 µM): 0.439
relative viability ([4]; first compound 0.8 µM): 0.438
relative viability ([4]; first compound 2.53 µM): 0.482
relative viability ([4]; first compound 8 µM): 0.792
relative viability ([10]; first compound 0.08 µM): 0.248
relative viability ([10]; first compound 0.8 µM): 0.254
relative viability ([10]; first compound 2.53 µM): 0.285
relative viability ([10]; first compound 8 µM): 0.247
relative viability ([11]; first compound 0.08 µM): 0.643
relative viability ([11]; first compound 0.8 µM): 0.53
relative viability ([11]; first compound 2.53 µM): 0.455
relative viability ([11]; first compound 8 µM): 0.681
relative viability ([12]; first compound 0.08 µM): 0.514
relative viability ([12]; first compound 0.8 µM): 0.501
relative viability ([12]; first compound 2.53 µM): 0.44
relative viability ([12]; first compound 8 µM): 0.536
relative viability ([6]; first compound 0.08 µM): 0.246
relative viability ([6]; first compound 0.8 µM): 0.278
relative viability ([6]; first compound 2.53 µM): 0.291
relative viability ([6]; first compound 8 µM): 0.274
relative viability ([13]; first compound 0.08 µM): 0.621
relative viability ([13]; first compound 0.8 µM): 0.591
relative viability ([13]; first compound 2.53 µM): 0.835
relative viability ([13]; first compound 8 µM): 0.865
relative viability ([14]; first compound 0.08 µM): 0.622
relative viability ([14]; first compound 0.8 µM): 0.433
relative viability ([14]; first compound 2.53 µM): 0.425
relative viability ([14]; first compound 8 µM): 0.634
